From patent US20250213563A1, “SUBSTITUTED PYRIMIDIN-4(3H)-ONES FOR USE IN TREATING CANCER” (NAVIRE PHARMA, INC., priority 2021, published 2025)
Where two headings read alike, the source gives them in different places.

Key:
[1] = Single-dose pharmacokinetics, CD-1 mouse; assay type: in vivo, mouse (CD-1, female); conditions: for AUC(0-t): read-out: AUC0→24
Description: (§1) The pharmacokinetic (PK) parameters of Compound (10b) (freebase) were determined following single intravenous (IV) and oral (PO) administration in female CD-1 mouse, female C57BL/6 mouse (PO only), male Sprague Dawley rat, male Beagle dog, and male Cynomolgus monkey. Additional evaluation of the PK properties of Compound (10b) was obtained following single dose PO administration in female CD-1 mouse, male Sprague Dawley rat and male Beagle dog over a dose range spanning 10 to 300 mg/kg (mouse and rat) and 1 to 100 mg/kg (dog). The intravenous dose solutions were prepared in 20% DMSO-60% PEG400-20% water and the oral dose solutions as suspensions in 0.5% methylcellulose in water, unless otherwise noted. Plasma concentration profiles were generated from serial sampling in individual animals up to 24 hours post dose, except for the studies in mice where composite sampling methods were used (i.e. 3 sampling times per mouse; 9 mice per group). […] Exposures increased with increasing dose level across species, in a dose-proportional manner in mouse and dog, and in a greater than dose-proportional manner in rat (80× increase in AUC with a 30× increase in dosage).

[2] = Single-dose pharmacokinetics, Beagle dog; assay type: in vivo, male); conditions: free base; for AUC(0-t): read-out: AUC0→24
Description: as §1

[3] = tested on: KYSE-520 xenograft tumors; experiment: Pharmacodynamics in KYSE-520 xenograft tumors (DUSP6 / MPAS-plus mRNA); assay type: in vivo, NSG mice; conditions: for IC50: Mus musculus, KYSE-520, plasma concentration
Description: KYSE-520 (EGFRamp) cells were subcutaneously implanted in NSG mice and allowed to grow to an average tumor volume of 340 mm^3 as monitored by caliper measurements. At this point, animals were randomized and treated with vehicle, Compound (10b) 25 mg/kg or Compound (10b) 100 mg/kg PO. Plasma and tumor samples were harvested 4, 16 and 24 hours after a single dose. Compound (10b) plasma concentration and tumor pERK levels were determined. Data represent mean±SEM. N=4 mice per group.
In addition to DUSP6 mRNA levels, other MAPK pathway genes were examined through sequencing analysis. The MPAS (MAPK pathway activity score) signature is a signature of 10 genes that reflects MAPK pathway activity. This gene signature has been used in the clinic to evaluate the pharmacodynamic effect of the ERK inhibitor GDC-0994 in tumors. Based on the MPAS signature, a 13-gene signature (“MPAS-plus”) was developed, which includes the 10 MPAS genes and three additional MAPK-targeted genes (ETV1, EGR1 and FOSL1) that are modulated by SHP2 inhibitors across multiple cell line models (data not shown).

[4] = female, CD-1, mouse, plasma, IV 1 mg/kg, free base
[5] = female, CD-1, mouse, plasma, oral 10 mg/kg, free base
[6] = male, Beagle, dog, plasma, IV 1 mg/kg
[7] = male, Beagle, dog, plasma, oral 10 mg/kg

Question: For Cc1c(N2CCC3(CC2)CO[C@@H](C)[C@H]3N)nc(C)n(-c2cccc(Cl)c2Cl)c1=O (atropisomer, axis not shown; (Ra)) [Compound (10b), 6-((3S,4S)-4-amino-3-methyl-2-oxa-8-azaspiro[4.5]decan-8-yl)-3-(Ra)-(2,3-dichlorophenyl)-2,5-dimethylpyrimidin-4(3H)-one], which half-life [1, 4] is on record?
Answer: 133 min

Question: And the AUC(0-t) [1, 4]?
Answer: 1.39 µM·h

Question: What about the clearance ([1]; female, CD-1, mouse, plasma, IV 1 mg/kg, free base, read-out: Clp (converted)) of the same compound?
Answer: 25.7 mL/min/kg

Question: And the Vd ([1]; female, CD-1, mouse, plasma, IV 1 mg/kg, free base, read-out: Vdss)?
Answer: 3.84 L/kg

Question: And the Cmax [1, 5]?
Answer: 4.17 µM

Question: What about the AUC(0-t) [1, 5] of the same compound?
Answer: 12.5 µM·h

Question: And the Tmax ([1]; female, CD-1, mouse, plasma, oral 10 mg/kg, free base, read-out: Tmax (mean))?
Answer: 15 min

Question: And the Tmax ([1]; female, CD-1, mouse, plasma, oral 300 mg/kg, read-out: mean Tmax)?
Answer: 15 min

Question: And the F ([1]; oral 10 mg/kg, free base)?
Answer: 84.1%

Question: And the half-life [2, 6]?
Answer: 494 min

Question: And the AUC(0-t) [2, 6]?
Answer: 3.91 µM·h

Question: What about the clearance ([2]; male, Beagle, dog, plasma, IV 1 mg/kg, read-out: Clp (converted)) of the same compound?
Answer: 8.5 mL/min/kg

Question: What about the Vd ([2]; male, Beagle, dog, plasma, IV 1 mg/kg, read-out: Vdss) of the same compound?
Answer: 5.46 L/kg

Question: And the Cmax [2, 7]?
Answer: 6.37 µM

Question: And the Tmax [2, 7]?
Answer: 49.8 min

Question: What about the AUC(0-t) [2, 7] of the same compound?
Answer: 48.2 µM·h

Question: And the F ([2]; oral 10 mg/kg)?
Answer: 115%

Question: What about the “suppression of DUSP6 mRNA levels in tumors” value (shortened to “suppression … in tumors”) ([3]; 25 mg/kg PO, 4-hour after a single dose) of the same compound?
Answer: > 90%

Question: And the “suppression … in tumors” value ([3]; 25 mg/kg PO, 16-hour after a single dose)?
Answer: < 50%

Question: What about the “suppression … in tumors” value ([3]; 25 mg/kg or 100 mg/kg PO, 24-hour after a single dose) of the same compound?
Answer: neither treatment significantly suppressed

Question: What about the “suppression … in tumors” value ([3]; 100 mg/kg PO, 4-hour after a single dose) of the same compound?
Answer: > 90%

Question: What about the “suppression … in tumors” value ([3]; 100 mg/kg PO, 16-hour after a single dose) of the same compound?
Answer: > 50%

Question: What about the IC50 ([3]; PK/PD relationship, read-out: in vivo IC50) of the same compound?
Answer: 1.5 µM

Question: And the IC50 ([3]; read-out: KYSE-520 xenograft DUSP6 IC50)?
Answer: 0.656 µg/mL

Question: What about the Cmax ([3]; prediction used as reference line for human plasma levels, read-out: predicted efficacious Cmax) of the same compound?
Answer: 5.3 µM

Question: What about the “suppression of the MPAS-plus signature in the tumor” value ([3]; single oral dose or five doses, 25 mg/kg or 100 mg/kg) of the same compound?
Answer: dose- and time-dependent suppression
